In ChEMBL document CHEMBL5728451, “Pyrimidinone derivatives as SHP2 antagonists” (2021):

Biological target: T1, Tyrosine-protein phosphatase non-receptor type 11 (Homo sapiens, UniProt Q06124)
T1 sequence (Q06124 whole entry): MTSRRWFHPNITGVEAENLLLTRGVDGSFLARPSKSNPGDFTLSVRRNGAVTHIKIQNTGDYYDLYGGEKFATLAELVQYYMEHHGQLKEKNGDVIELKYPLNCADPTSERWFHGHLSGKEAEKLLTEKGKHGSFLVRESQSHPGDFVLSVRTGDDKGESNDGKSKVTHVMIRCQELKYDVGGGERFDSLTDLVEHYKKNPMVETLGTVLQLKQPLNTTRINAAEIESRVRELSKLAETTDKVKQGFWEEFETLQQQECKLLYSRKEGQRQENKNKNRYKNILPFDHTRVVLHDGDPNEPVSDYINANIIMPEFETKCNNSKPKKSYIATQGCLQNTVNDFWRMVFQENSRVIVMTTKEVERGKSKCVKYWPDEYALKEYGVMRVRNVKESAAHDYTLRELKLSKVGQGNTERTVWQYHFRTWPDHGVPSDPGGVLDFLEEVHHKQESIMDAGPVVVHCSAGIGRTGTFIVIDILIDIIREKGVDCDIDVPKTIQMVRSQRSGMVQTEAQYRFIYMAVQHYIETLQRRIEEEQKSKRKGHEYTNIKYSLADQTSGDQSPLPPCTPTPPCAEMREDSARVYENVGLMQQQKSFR
Experiment: Biochemical Assay: The inhibition of SHP2 by compounds of the invention was monitored using the surrogate substrate DiFMUP after protein activation by a peptide bearing two appropriately spaced phosphotyrosine. Full length SHP2 protein (Recombinant HumanSHP-2, E. coli derived Ser2Arg593, N-terminal 6His tag from R&D systems; […]) was incubated with activating peptide, IRSI_2pY (New England …

## Cc1nc(N2CCC3(CCCC3CN)CC2)cc(=O)n1-c1cccc(Cl)c1Cl (configuration not stated)
  IC50: 2100 nM

## Cc1nc(N2CCC(C)(CN)CC2)cc(=O)n1-c1cccc(C(F)(F)F)c1Cl
  IC50: 1500 nM
